Source: ChEMBL document CHEMBL6182948 (J Med Chem, 2025)

Experiments:
Homo sapiens [1] = species on record: Homo sapiens; assay: Selectivity index, ratio of IC50 for human recombinant CYP1A2 to IC50 for human recombinant CYP1B1 using 7-ethoxyresorufin as substrate
Cytochrome P450 1A1 = target: T1, Cytochrome P450 1A1 (Homo sapiens, UniProt P04798); assay: Inhibition of human recombinant CYP1A1 using 7-ethoxyresorufin as substrate incubated under dark condition for 15 mins in presence of NADPH by EROD fluorescence assay; type: ADME
T1 sequence (P04798 whole entry): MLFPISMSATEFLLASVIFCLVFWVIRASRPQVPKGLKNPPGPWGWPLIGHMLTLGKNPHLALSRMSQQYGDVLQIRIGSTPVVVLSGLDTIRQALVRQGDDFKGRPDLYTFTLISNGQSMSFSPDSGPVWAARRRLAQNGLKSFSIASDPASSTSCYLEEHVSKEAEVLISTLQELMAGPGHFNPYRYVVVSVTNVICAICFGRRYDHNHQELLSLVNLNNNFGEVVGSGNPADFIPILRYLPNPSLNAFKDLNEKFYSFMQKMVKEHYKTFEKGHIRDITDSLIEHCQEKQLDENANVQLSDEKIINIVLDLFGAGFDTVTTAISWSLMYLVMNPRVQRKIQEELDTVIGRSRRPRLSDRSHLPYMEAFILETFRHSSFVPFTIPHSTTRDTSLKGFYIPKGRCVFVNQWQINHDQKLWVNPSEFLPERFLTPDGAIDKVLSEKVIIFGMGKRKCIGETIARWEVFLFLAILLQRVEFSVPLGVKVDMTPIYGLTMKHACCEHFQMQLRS

CYP1B1 = target: T2, CYP1B1 (Homo sapiens, UniProt Q16678); assay: Inhibition of human recombinant CYP1B1 using 7-ethoxyresorufin as substrate at 100 uM incubated under dark condition for 30 mins in presence of NADPH by EROD fluorescence assay relative to control; type: ADME; conditions: recombinant CYP1B1, probe 7-ethoxyresorufin
T2 sequence (Q16678 whole entry): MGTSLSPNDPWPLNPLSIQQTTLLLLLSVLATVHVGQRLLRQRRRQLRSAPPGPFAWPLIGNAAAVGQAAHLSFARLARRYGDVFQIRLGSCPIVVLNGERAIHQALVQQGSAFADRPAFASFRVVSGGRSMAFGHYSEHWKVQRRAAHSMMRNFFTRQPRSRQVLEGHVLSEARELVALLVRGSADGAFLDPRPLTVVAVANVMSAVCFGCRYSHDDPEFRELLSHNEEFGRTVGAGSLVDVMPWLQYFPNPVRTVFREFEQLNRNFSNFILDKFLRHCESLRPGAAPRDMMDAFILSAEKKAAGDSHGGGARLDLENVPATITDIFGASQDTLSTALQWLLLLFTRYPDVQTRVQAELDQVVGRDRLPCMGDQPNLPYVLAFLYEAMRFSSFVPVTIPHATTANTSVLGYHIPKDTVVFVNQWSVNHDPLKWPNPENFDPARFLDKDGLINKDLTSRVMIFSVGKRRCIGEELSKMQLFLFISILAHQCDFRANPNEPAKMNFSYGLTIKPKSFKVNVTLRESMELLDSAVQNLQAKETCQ

Homo sapiens [2] = species on record: Homo sapiens; assay: Selectivity index, ratio of IC50 for human recombinant CYP1A1 to IC50 for human recombinant CYP1B1 using 7-ethoxyresorufin as substrate
Cytochrome P450 1B1 = target: T3, Cytochrome P450 1B1 (Homo sapiens, UniProt Q16678); assay: Inhibition of human recombinant CYP1B1 using 7-ethoxyresorufin as substrate incubated under dark condition for 30 mins in presence of NADPH by EROD fluorescence assay; type: ADME
T3 sequence (Q16678 whole entry): T2 sequence (Q16678 whole entry)

Cytochrome P450 1A2 = target: T4, Cytochrome P450 1A2 (Homo sapiens, UniProt P05177); assay: Inhibition of human recombinant CYP1A2 using 7-ethoxyresorufin as substrate incubated under dark condition for 45 mins in presence of NADPH by EROD fluorescence assay; type: ADME
T4 sequence (P05177 whole entry): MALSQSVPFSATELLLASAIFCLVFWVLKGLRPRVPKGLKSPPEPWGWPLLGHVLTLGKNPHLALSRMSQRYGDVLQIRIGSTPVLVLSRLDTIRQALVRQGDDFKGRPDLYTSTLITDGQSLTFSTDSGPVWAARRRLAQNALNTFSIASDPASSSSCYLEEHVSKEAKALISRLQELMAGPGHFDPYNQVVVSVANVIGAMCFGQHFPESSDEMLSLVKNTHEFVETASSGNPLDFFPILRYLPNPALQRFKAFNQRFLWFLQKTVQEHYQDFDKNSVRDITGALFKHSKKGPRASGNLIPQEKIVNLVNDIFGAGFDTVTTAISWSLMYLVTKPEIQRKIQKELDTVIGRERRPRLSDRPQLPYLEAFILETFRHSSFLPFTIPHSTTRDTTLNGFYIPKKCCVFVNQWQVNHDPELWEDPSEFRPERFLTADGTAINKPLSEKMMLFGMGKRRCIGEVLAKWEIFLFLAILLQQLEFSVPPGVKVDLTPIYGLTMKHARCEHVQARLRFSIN

Row | SMILES | Ratio IC50 (Homo sapiens [1]) | IC50 (Cytochrome P450 1A1) [nM] | inhibition at 0.5 h, 100 µM (CYP1B1) [%] | Ratio IC50 (Homo sapiens [2]) | IC50 (Cytochrome P450 1B1) [nM] | IC50 (Cytochrome P450 1A2) [nM]
1 | N#Cc1ccc(NC(=O)c2nc(-c3ccccc3)cs2)cc1 | 73.4 | 870 | 99.3 | 113 | 7.68 | 563
2 | O=C(Nc1ccc(N2CCOCC2)cc1)c1nc(-c2ccccc2)cs1 |  |  | 20.5 |  |  | 
3 | O=C(Nc1cccc(Cl)c1)c1nc(-c2ccccc2)cs1 |  |  | 77.4 |  |  | 
4 | O=C(Nc1ccc(I)cc1)c1nc(-c2ccccc2)cs1 | 377 | 164 | 100 | 410 | 0.4 | 151
5 | O=C(Nc1ccc(N2CCNCC2)cc1)c1nc(-c2ccccc2)cs1 |  |  | 8.7 |  |  | 
6 | O=C(Nc1ccc(C(F)(F)F)cc1)c1nc(-c2ccccc2)cs1 | 952 | 450 | 99.5 | 951 | 0.47 | 450
7 | O=C(Nc1ccc(Cl)cc1Cl)c1nc(-c2ccccc2)cs1 | 137 | 251 | 102 | 70.3 | 3.57 | 488
8 | O=C(Nc1cc(Cl)cc(Cl)c1)c1nc(-c2ccccc2)cs1 | 212 | 223 | 102 | 66.2 | 3.36 | 712
9 | COc1cc(NC(=O)c2nc(-c3ccccc3)cs2)cc(OC)c1 | 156 | 621 | 87.4 | 134 | 4.65 | 724
10 | COc1cc(Cl)cc(NC(=O)c2nc(-c3ccccc3)cs2)c1 | 35.9 | 230 | 96.5 | 13.3 | 17.3 | 619
11 | Cc1ccc(NC(=O)c2nc(-c3ccccc3)cs2)cc1 | 27.1 | 977 | 94.2 | 26.4 | 37 | 1000
12 | COc1cc(NC(=O)c2nc(-c3ccccc3)cs2)cc(OC)c1OC |  |  | 62.8 |  |  | 
13 | COc1ccc(OC)c(NC(=O)c2nc(-c3ccccc3)cs2)c1 | 27.8 | 404 | 91.2 | 18.4 | 22 | 611
14 | O=C(Nc1ccccc1F)c1nc(-c2ccccc2)cs1 |  |  | 69.6 |  |  | 
15 | O=C(Nc1ccc(-n2ccnc2)cc1)c1nc(-c2ccccc2)cs1 | 1.6 | 10.8 | 102 | 7.2 | 1.49 | 2.4
16 | O=C(Nc1ccc(OC(F)F)cc1)c1nc(-c2ccccc2)cs1 | 2610 | 210 | 100 | 808 | 0.26 | 679
17 | COc1ccc(NC(=O)c2nc(-c3ccccc3)cs2)cc1 | 80.2 | 470 | 95 | 42 | 11.2 | 899
18 | COc1ccc(NC(=O)c2nc(-c3ccccc3)cs2)c(OC)c1 |  | 785 | 89.3 | 31.1 | 25.2 | 438
19 | O=C(Nc1ccc(C(F)(F)F)cc1)c1nc(-c2cccc(Cl)c2)cs1 | 1270 | 52.8 |  | 99.6 | 0.53 | 670

Row | SMILES | Ratio IC50 (Homo sapiens [1]) | IC50 (Cytochrome P450 1A1) [nM] | inhibition at 0.5 h, 100 µM (CYP1B1) [%] | Ratio IC50 (Homo sapiens [2]) | IC50 (Cytochrome P450 1B1) [nM] | IC50 (Cytochrome P450 1A2) [nM]
20 | O=C(Nc1cc(Cl)cc(Cl)c1)c1nc(-c2cncc(Cl)c2)cs1 | 5.5 | 11.5 |  | 6.5 | 1.77 | 9.7
21 | NC(=O)c1cccc(-c2csc(C(=O)Nc3ccc(OC(F)F)cc3)n2)c1 | 2490 | 64.4 |  | 32 | 2.01 | 5010
22 | N#Cc1cccc(-c2csc(C(=O)Nc3ccc(OC(F)F)cc3)n2)c1 | > 5550 | 70 |  | 7.8 | 9.02 | > 50000
23 | NC(=O)c1ccc(NC(=O)c2nc(-c3ccccc3)cs2)cc1 |  |  | 54.6 |  |  | 
24 | O=C(Nc1ccc(OC(F)F)cc1)c1nc(-c2ccc(F)cc2)cs1 | 1730 | 58.1 |  | 122 | 0.47 | 820
25 | O=C(Nc1cc(Cl)cc(Cl)c1)c1nc(-c2ccc(-c3ccccc3)cc2)cs1 | 6.5 | 9310 |  | 4.8 | 1950 | 12700
26 | O=C(Nc1cc(Cl)cc(Cl)c1)c1nc(-c2ccnc(Cl)c2)cs1 | > 23400 | 68.3 |  | 16 | 4.28 | > 100000
27 | COc1cc(NC(=O)c2nc(-c3cccc(F)c3)cs2)cc(OC)c1 | 993 | 474 |  | 65.1 | 7.29 | 7240
28 | O=C(Nc1cc(Cl)cc(Cl)c1)c1nc(-c2ccccc2F)cs1 | 147 | 129 |  | 107 | 1.21 | 178
29 | O=C(Nc1cc(Cl)cc(Cl)c1)c1nc(-c2ccc(I)cc2)cs1 | 71 | > 10000 |  | > 445 | 22.5 | 1590
30 | O=C(Nc1ccccc1)c1nc(-c2ccccc2)cs1 | 16.3 | 597 |  | 22.1 | 27 | 441
31 | Cc1sc(C(=O)Nc2cc(Cl)cc(Cl)c2)nc1-c1cccc(F)c1 | 1600 | 122 |  | 138 | 0.88 | 1410
32 | NC(=O)c1ccc(-c2csc(C(=O)Nc3ccc(OC(F)F)cc3)n2)cc1 | 5590 | 106 |  | 104 | 1.03 | 5730
33 | NC(=O)c1cccc(-c2csc(C(=O)Nc3cc(Cl)cc(Cl)c3)n2)c1 | > 8640 | 1340 |  | 116 | 11.6 | > 100000
34 | COc1cc(NC(=O)c2nc(-c3ccccc3F)cs2)cc(OC)c1 | 86.5 | 358 |  | 21.5 | 16.6 | 1440
35 | COc1cc(NC(=O)c2nc(-c3ccc(F)cc3)cs2)cc(OC)c1 | > 2610 | 414 |  | 108 | 3.83 | > 10000
36 | NC(=O)c1ccc(-c2csc(C(=O)Nc3ccc(C(F)(F)F)cc3)n2)cc1 | > 12100 | 141 |  | 170 | 0.83 | > 10000
37 | O=C(Nc1ccc(-c2ccccc2)cc1)c1nc(-c2ccccc2)cs1 |  |  | 21.2 |  |  | 
38 | O=C(Nc1cc(Cl)cc(Cl)c1)c1nc(-c2ccc(Br)cc2)cs1 | 167 | > 100000 |  | > 3790 | 26.4 | 4390
